IC50 data for 25 compounds are collected here from US9914730B2, “Azaquinazoline inhibitors of Atypical protein Kinase C” (Ignyta, Inc., priority 2012, dated 2018).

For the assay, the target named is T1, full-length human PKCι (Homo sapiens, UniProt P41743).
T1 construct: Recombinant, full-length human PKCι expressed in Sf21 insect cells is also commercially available; purchased; host or cells: Sf21 insect cells
T1 sequence (P41743 1-596): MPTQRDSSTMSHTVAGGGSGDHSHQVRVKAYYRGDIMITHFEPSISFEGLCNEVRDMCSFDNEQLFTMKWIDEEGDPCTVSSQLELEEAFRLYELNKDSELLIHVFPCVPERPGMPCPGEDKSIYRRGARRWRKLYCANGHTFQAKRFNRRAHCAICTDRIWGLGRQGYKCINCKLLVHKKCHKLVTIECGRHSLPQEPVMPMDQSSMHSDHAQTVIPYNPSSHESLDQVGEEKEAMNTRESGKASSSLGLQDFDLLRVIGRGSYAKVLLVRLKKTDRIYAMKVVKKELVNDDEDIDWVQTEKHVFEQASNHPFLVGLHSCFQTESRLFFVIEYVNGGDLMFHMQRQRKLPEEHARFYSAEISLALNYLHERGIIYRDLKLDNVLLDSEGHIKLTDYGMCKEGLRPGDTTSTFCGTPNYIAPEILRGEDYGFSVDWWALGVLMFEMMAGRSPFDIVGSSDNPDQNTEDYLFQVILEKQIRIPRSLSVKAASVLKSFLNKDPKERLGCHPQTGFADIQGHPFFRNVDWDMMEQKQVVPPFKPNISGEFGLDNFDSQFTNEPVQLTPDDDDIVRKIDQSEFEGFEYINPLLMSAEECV
Nature of the assay: PKCι IC50 IMAP assay, full-length PKCι at 150 μM ATP. Format: biochemical. The note with it: read-out: IC50 in IMAP assay against full length PKCi at 150 μM ATP. The method, boiled down:
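Full-length human PKCι from Sf21 cells, typically 15 pM, with 100 nM 5FAM-PKCε pseudosubstrate peptide and 150 μM ATP (5× apparent KM), 60 min at room temperature, 4% DMSO. IMAP fluorescence polarisation read-out; inhibition normalised to no-compound and no-enzyme controls, IC50 from curve fit.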

`N[C@H](CNc1nc(-c2ccncc2)nc2c(-c3cncnc3)nccc12)Cc1ccccc1` [Example 108, N-[(2S)-2-amino-3-phenylpropyl]-2-(pyridin-4-yl)-8-(pyrimidin-5-yl)pyrido[3,4-d]pyrimidin-4-amine]: the 50% inhibitory concentration (IC50) was in the range of 100 to 1000 nM. With `Fc1cc(F)c(Nc2cc(-c3nc(NC4CCNC4)c4c(C5CC5)cncc4n3)ccn2)nc1F` (stereo not shown) [Example 2020, {5-Cyclopropyl-2-[2-(3,5,6-trifluoro-pyridin-2-ylamino)-pyridin-4-yl]-pyrido[3,4-d]pyrimidin-4-yl}-pyrrolidin-3-yl-amine], the half-maximal inhibitory concentration (IC50) was < 100 nM.

For the compound `Fc1cccnc1-c1cc2c(-c3nc(N4CCNCC4)c4c(C5CC5)cncc4n3)ccnc2[nH]1` [Example 2179, 5-Cyclopropyl-2-[2-(3-fluoro-pyridin-2-yl)-1H-pyrrolo[2,3-b]pyridin-4-yl]-4-piperazin-1-yl-pyrido[3,4-d]pyrimidine], the concentration for half-maximal inhibition (IC50) was < 100 nM. Then `COc1cncc2nc(-c3ccnc(Nc4ccc(F)cc4)c3)nc(N[C@@H]3CCNC3)c12` [Example 230, {2-[2-(4-Fluoro-phenyl-amino)-pyridin-4-yl]-5-methoxy-pyrido[3,4-d]pyrimidin-4-yl}-(R)-pyrrolidin-3-yl-amine], with < 100 nM. With `c1cc(-c2nc(N3CCNCC3)c3c(C4CC4)cncc3n2)c2c3c([nH]c2n1)CCCC3` [Example 2208, 4-(5-Cyclopropyl-4-piperazin-1-yl-pyrido[3,4-d]pyrimidin-2-yl)-6,7,8,9-telrahydro-5H-pyrido[2,3-b]indole], the IC50 is 100 to 1000 nM. In the case of `COc1cc(Nc2cc(-c3nc(N4CCNCC4)c4c(C5CC5)cncc4n3)ccn2)c(F)cc1F` [Example 628, [4-(5-Cyclopropyl-4-piperazin-1-yl-pyrido[3,4-d]pyrimidin-2-yl)-pyridin-2-yl]-(2,4-difluoro-5-methoxy-phenyl)-amine], the IC50 is < 100 nM. Turning to `COc1cncc2nc(-c3ccnc(Nc4ccc(N5CCOCC5)cc4)c3)nc(N[C@@H]3CCNC3)c12` [Example 229, {5-Methoxy-2-[2-(4-morpholin-4-yl-phenylamino)-pyridin-4-yl]-pyrido[3,4-d]pyrimidin-4-yl}-(R)-pyrrolidin-3-yl-amine], the IC50 was < 100 nM.

For the compound “(3S)-3-benzyl-1-[6- chloro-2-(pyridin-4- yl)pyrido[3,4-d]- pyrimidin-4- yl]piperazine [Example 14]”, the IC50 was in the range of 100 to 1000 nM. Next, `COc1cccc(CC(=O)Nc2cc(-c3nc(N[C@@H]4CCNC4)c4ccncc4n3)ccn2)c1` [Example 337, 2-(3-Methoxy-phenyl)-N-{4-[4-((R)-pyrrolidin-3-ylamino)-pyrido[3,4-d]pyrimidin-2-yl]-pyridin-2-yl}-acetamide]: < 100 nM; `Fc1ccc(C2CC2)cc1Nc1cc(-c2nc(N3CCNCC3)c3c(C4CC4)cncc3n2)ccn1` [Example 667, (5-Cyclopropyl-2-fluoro-phenyl)-[4-(5-cyclopropyl-4-piperazin-1-yl-pyrido[3,4-d]pyrimidin-2-yl)-pyridin-2-yl]-amine]: < 100 nM; `FC(F)(F)c1cc2c(-c3nc(SC4CCNCC4)c4c(C5CC5)cncc4n3)ccnc2[nH]1` [Example 2134, 5-Cyclopropyl-4-(piperidin-4-ylsulfanyl)-2-(2-trifluoromethyl-1H-pyrrolo[2,3-b]pyridin-4-yl)-pyrido[3,4-d]pyrimidine]: < 100 nM. `N[C@H](CNc1nc(-c2ccncc2)nc2c(-c3ccccc3)nccc12)Cc1ccccc1` [Example 90, N-[(2S)-2-amino-3-phenylpropyl]-8-phenyl-2-(pyridin-4-yl)pyrido[3,4-d]-pyrimidin-4-amine]: the IC50 was in the range of 100 to 1000 nM.

Turning to `O=C(NC1CCCCC1)N1CCN(c2nc(-c3ccncc3)nc3cnccc23)CC1` [Example 57, N-cyclohexyl-4-[2-(pyridin-4-yl)-pyrido[3,4-d]-pyrimidin-4-yl]-piperazine-1-carboxamide], the IC50 was in the range of 10000 to 40000 nM. Then `OCCN1CCN(c2nc(-c3ccncc3)nc3cnccc23)CC1` [Example 34, 2-{4-[2-(pyridin-4-yl)pyrido[3,4-d]-pyrimidin-4-yl]-piperazin-1-yl}-ethan-1-ol], with 10000 to 40000 nM.

With `COc1cncc2nc(-c3ccnc(Nc4ccccc4)c3)nc(N[C@@H]3CCN(CC(N)=O)C3)c12` [Example 245, 2-{3-[5-Methoxy-2-(2-phenylamino-pyridin-4-yl)-pyrido[3,4-d]pyrimidin-4-ylamino]-R-pyrrolidin-1-yl}-acetamide], the IC50 fell in the range of 1000 to 10000 nM. Then `COc1cncc2nc(-c3ccnc(Nc4cnccn4)c3)nc(N[C@@H]3CCNC3)c12` [Example 239, {5-Methoxy-2-[2-(pyrazin-2-ylamino)-pyridin-4-yl]-pyrido[3,4-d]pyrimidin-4-yl}-(R)-pyrrolidin-3-yl-amine], with < 100 nM; and `FC(F)(F)c1ccc(Nc2cc(-c3nc(N4CCNCC4)c4c(C5CC5)cncc4n3)ccn2)cc1` [Example 595, [4-(5-Cyclopropyl-4-piperazin-1-yl-pyrido[3,4-d]pyrimidin-2-yl)-pyridin-2-yl]-(4-trifluoromethyl-phenyl)-amine], with < 100 nM; and `c1cncc(Nc2cc(-c3nc(N[C@@H]4CCNC4)c4ccncc4n3)ccn2)c1` [Example 376, {2-[2-(Pyridin-3-ylamino)-pyridin-4-yl]-pyrido[3,4-d]pyrimidin-4-yl}-(R)-pyrrolidin-3-yl-amine], with 100 to 1000 nM. Next, `COc1cncc2nc(-c3ccnc(Nc4ccccc4)c3)nc(N3CCN[C@H](CO)C3)c12` [Example 222, {(S)-4-[5-Methoxy-2-(2-phenylamino-pyridin-4-yl)-pyrido[3,4-d]pyrimidin-4-yl]-piperazin-2-yl}-methanol]: < 100 nM; `c1ccc(C2(c3cc4c(-c5nc(N6CCNCC6)c6c(C7CC7)cncc6n5)ccnc4[nH]3)CCC2)cc1` [Example 2064, 5-Cyclopropyl-2-[2-(1-phenyl-cyclobutyl)-1H-pyrrolo[2,3-b]pyridin-4-yl]-4-piperazin-1-yl-pyrido[3,4-d]pyrimidine]: < 100 nM. Consider `c1cc(-c2nc(N3CCC4NCC[C@H]4C3)c3ccncc3n2)ccn1` (stereo partly drawn) [Example 67, 4-{4-[(3aS)-octahydro-1H-pyrrolo[3,2-c]-pyridin-5-yl]-pyrido[3,4-d]-pyrimidin-2-yl}-pyridine], for which the IC50 lay within 10000 to 40000 nM.

As for `COc1cccc(Nc2cc(-c3nc(N4CCC(O)CC4)c4c(OC)cncc4n3)ccn2)n1` [Example 469, 1-{5-Methoxy-2-[2-(6-methoxy-pyridin-2-ylamino)-pyridin-4-yl]-pyrido[3,4-d]pyrimidin-4-yl}-piperidin-4-ol], the IC50 is 1000 to 10000 nM. On to `CC(C)c1cncc2nc(-c3ccnc4[nH]ccc34)nc(N3CCNCC3)c12` [Example 1211, 5-Isopropyl-4-piperazin-1-yl-2-(1H-pyrrolo[2,3-b]pyridin-4-yl)-pyrido[3,4-d]pyrimidine], for which the 50% inhibitory concentration (IC50) is < 100 nM. Regarding `COc1cncc2nc(-c3ccnc(Nc4cncc(C)c4)c3)nc(N3CCNCC3)c12` [Example 416, [4-(5-Methoxy-4-piperazin-1-yl-pyrido[3,4-d]pyrimidin-2-yl)-pyridin-2-yl]-(5-methyl-pyridin-3-yl)-amine], the IC50 is < 100 nM. Next, `Fc1cc(F)c(Nc2cc(-c3nc(N4CCNCC4)c4c(C5CC5)cncc4n3)ccn2)c(F)c1` [Example 650, [4-(5-Cyclopropyl-4-piperazin-1-yl-pyrido[3,4-d]pyrimidin-2-yl)-pyridin-2-yl]-(2,4,6-trifluoro-phenyl)-amine]: < 100 nM.

The term IC50 denotes the concentration needed to halve the response being measured.
